Test results: US7070803B2 (Nycomed Austria GmbH, priority 2000, dated 2006)

Key:
[1] = Plasma pharmacokinetics after oral intake of midodrine (plain tablet / solution); details: human, in vivo
From the text: Considering the chronic nature of the diseases in question, which requires a long-term treatment as well as the correlation between plasma levels and the incidence and severity of adverse events, the development of a controlled release form is highly desired.

[2] = Absorption of midodrine from the colon (plasma levels); details: human, in vivo, tmax of desglymidodrine after colon absorption, midodrine absorbed in the colon
[3] = doses used in clinical practise (10 mg t.i.d.); cited from earlier work

COc1ccc(OC)c(C(O)CN)c1 (stereo not drawn) [desglymidodrine, alpha-(aminomethyl)-2,5-dimethoxy-benzenemethanol]
Tmax [1]: 1 h | Tmax [2]: ~3 h

COc1ccc(OC)c(C(O)CNC(=O)CN)c1 (stereo not drawn) [midodrine, 2-amino-N-[2-(2,5-dimethoxyphenyl)-2-hydroxyethyl]-acetamide]
effect on standing blood pressure [3]: significantly increase standing blood pressure
